The subject of the data set is chemisch induzierten Mamma-Karzinomen. In words: chemically induced mammary carcinoma of the rat, oral administration as drinking solution. Format: in vivo. The conditions noted are these: Ratten; for Remission von chemisch induzierten Mamma-Karzinomen: oral (Trinklösung), Tagesdosen von 20, 40 und 60 mg/kg Körpergewicht; for Verträglichkeit compared with 1-Octadecyl-2-methyl-rac-glycero-3-phospho-cholin / Wirksamkeit compared with 1-Octadecyl-2-methyl-rac-glycero-3-phospho-cholin: oral, comparison with 1-Octadecyl-2-methyl-rac-glycero-3-phospho-cholin. An excerpt: Die erfindungsgemäßen Arzneimittel, welche als Wirkstoffe eine Verbindung der allgemeinen Formel I enthalten, besitzen eine ausgeprägte cytotoxische Wirksamkeit, die sowohl in vivo am chemisch induzierten Mamma-Karzinom der Ratte, als auch in vitro an Leukämiezellen in der Zellkultur nachgewiesen wurde. Darüberhinaus wurden in einer klinischen Pilotstudie bei Patientinnen mit Mamma-Karzinom Hautmetastasen zur vollständigen Abheilung bei topischer Anwendung gebracht.
Für die orale Verabreichung werden die Verbindungen der allgemeinen Formel I zweckmäßig in Form einer Trinklösung angewendet. Als Träger eignen sich beispielsweise Milch, Kakao, Fruchtsaft oder Trinkwasser. […] Bei dem für diese Versuche verwendeten Tumormodell handelt es sich um ein sogenanntes hartes Modell. Dies bedeutet, daß die an diesem Modell erstellten Befunde in den meisten Fällen auch auf die humane Situation übertragbar sind.

The structures appear in SMILES notation.

On to `CCCCCCCCCCCCCCCCOP(=O)([O-])OCC[N+](C)(C)C` [Hexadecylphosphocholin], for which the “Remission von chemisch induzierten Mamma-Karzinomen” value is on record as “vollständigen Remission”, the “Verträglichkeit compared with 1-Octadecyl-2-methyl-rac-glycero-3-phospho-cholin” value was “besser verträglich” and the “Wirksamkeit compared with 1-Octadecyl-2-methyl-rac-glycero-3-phospho-cholin” value is listed as “besser wirksam”.
`CCCCCCCC/C=C\CCCCCCCCOP(=O)([O-])OCC[N+](C)(C)C` [Oleylphosphocholin]: the “Remission von chemisch induzierten Mamma-Karzinomen” value is on record as “vollständigen Remission”, the “Verträglichkeit compared with 1-Octadecyl-2-methyl-rac-glycero-3-phospho-cholin” value is reported as “besser verträglich” and the “Wirksamkeit compared with 1-Octadecyl-2-methyl-rac-glycero-3-phospho-cholin” value is recorded as “besser wirksam”.
